1 molecule from paper PMC5218480 (PLoS ONE, 2017) can be followed below.

The test has as its system MV-4-11 cells. The test can be described thus: Gene expression microarray analysis (Affymetrix PrimeView) and GSEA. The test is classed as cell-based, human. Set-up: RFU PODN (11730768_x_at) / Fold change /veh PODN (11730768_x_at) / RFU LINC00158 (11744669_a_at) / Fold change /veh LINC00158 (11744669_a_at) / RFU DUSP10 (11751237_a_at) / Fold change /veh DUSP10 (11751237_a_at) / RFU ID3 (11757404_x_at) / Fold change /veh ID3 (11757404_x_at) / RFU PLEKHG5 (11737974_s_at) / Fold change /veh PLEKHG5 (11737974_s_at) / RFU LRRC4B (11730491_at) / Fold change /veh LRRC4B (11730491_at) / RFU GIMAP4 (11747438_a_at) / Fold change /veh GIMAP4 (11747438_a_at) / RFU KRT8 (11758183_x_at) / Fold change /veh KRT8 (11758183_x_at) / RFU CNN1 (11734310_a_at) / Fold change /veh CNN1 (11734310_a_at) / RFU VPS37D (11726825_at) / Fold change /veh VPS37D (11726825_at) / RFU C10orf10 (11716522_x_at) / Fold change /veh C10orf10 (11716522_x_at) / RFU KIR2DL2 /// KIR2DL4 /// KIR2DL5A /// KIR2DL5B /// KIR2DS1 /// KIR2DS2 /// KIR2DS3 /// KIR2DS4 /// KIR3DL3 /// KIR3DL3 /// KIR3DS1 (11738374_at) / Fold change /veh KIR2DL2 /// KIR2DL4 /// KIR2DL5A /// KIR2DL5B /// KIR2DS1 /// KIR2DS2 /// KIR2DS3 /// KIR2DS4 /// KIR3DL3 /// KIR3DL3 /// KIR3DS1 (11738374_at) / RFU C1QL1 (11718748_at) / Fold change /veh C1QL1 (11718748_at) / RFU TMPRSS4 (11747572_a_at) / Fold change /veh TMPRSS4 (11747572_a_at) / RFU HAMP (11756126_x_at) / Fold change /veh HAMP (11756126_x_at) / RFU RNFT2 (11725882_a_at) / Fold change /veh RNFT2 (11725882_a_at) / RFU NR4A2 (11747474_a_at) / Fold change /veh NR4A2 (11747474_a_at) / RFU ABCC12 (11746883_a_at) / Fold change /veh ABCC12 (11746883_a_at) / RFU TMEM136 (11760407_x_at) / Fold change /veh TMEM136 (11760407_x_at) / RFU CLDN22 /// WWC2 (11732394_at) / Fold change /veh CLDN22 /// WWC2 (11732394_at) / RFU HLA-DPB1 (11760878_x_at) / Fold change /veh HLA-DPB1 (11760878_x_at) / RFU SPINT1 (11716480_a_at) / Fold change /veh SPINT1 (11716480_a_at) / RFU GAP43 (11754022_s_at) / Fold change /veh GAP43 (11754022_s_at) / RFU A4GNT (11735810_at) / Fold change /veh A4GNT (11735810_at) / RFU PRB3 (11715151_x_at) / Fold change /veh PRB3 (11715151_x_at) / RFU TUBB4B (11761932_at) / Fold change /veh TUBB4B (11761932_at) / RFU CAPN14 (11732068_a_at) / Fold change /veh CAPN14 (11732068_a_at) / RFU TMCC2 (11721928_a_at) / Fold change /veh TMCC2 (11721928_a_at) / RFU IRGQ (11745062_a_at) / Fold change /veh IRGQ (11745062_a_at) / RFU FAM174B (11720279_a_at) / Fold change /veh FAM174B (11720279_a_at) / RFU TMPRSS4 (11748680_a_at) / Fold change /veh TMPRSS4 (11748680_a_at) / RFU FAM212B (11763350_a_at) / Fold change /veh FAM212B (11763350_a_at) / RFU PLEKHG5 (11743358_a_at) / Fold change /veh PLEKHG5 (11743358_a_at) / RFU ZSCAN30 (11745921_a_at) / Fold change /veh ZSCAN30 (11745921_a_at) / RFU CMKLR1 (11741424_a_at) / Fold change /veh CMKLR1 (11741424_a_at) / RFU LOC101060620 /// MAPK8IP1 (11723275_at) / Fold change /veh LOC101060620 /// MAPK8IP1 (11723275_at) / RFU SPTSSB (11747773_x_at) / Fold change /veh SPTSSB (11747773_x_at) / RFU PRSS12 (11739890_at) / Fold change /veh PRSS12 (11739890_at) / RFU BIN1 (11741810_x_at) / Fold change /veh BIN1 (11741810_x_at) / RFU WNT11 (11732464_a_at) / Fold change /veh WNT11 (11732464_a_at) / RFU C10orf10 (11716521_a_at) / Fold change /veh C10orf10 (11716521_a_at) / RFU C5orf56 (11738089_at) / Fold change /veh C5orf56 (11738089_at) / RFU CYB561 (11721691_x_at) / Fold change /veh CYB561 (11721691_x_at) / RFU ANKRD19P (11752326_a_at) / Fold change /veh ANKRD19P (11752326_a_at) / RFU OR2T12 /// OR2T33 /// OR2T8 (11738714_s_at) / Fold change /veh OR2T12 /// OR2T33 /// OR2T8 (11738714_s_at) / RFU VCAN (11748164_a_at) / Fold change /veh VCAN (11748164_a_at) / RFU JSRP1 (11732532_at) / Fold change /veh JSRP1 (11732532_at) / RFU KRTAP10-11 (11738290_x_at) / Fold change /veh KRTAP10-11 (11738290_x_at) / RFU MYO3A (11730013_a_at) / Fold change /veh MYO3A (11730013_a_at) / RFU EBF3 (11725865_a_at) / Fold change /veh EBF3 (11725865_a_at) / RFU CAMK2N1 (11719241_x_at) / Fold change /veh CAMK2N1 (11719241_x_at) / RFU C5orf56 (11738088_a_at) / Fold change /veh C5orf56 (11738088_a_at) / RFU OLFML3 (11715873_a_at) / Fold change /veh OLFML3 (11715873_a_at) / RFU LOC100653217 /// NTM (11731650_a_at) / Fold change /veh LOC100653217 /// NTM (11731650_a_at) / RFU MAPK11 (11762145_a_at) / Fold change /veh MAPK11 (11762145_a_at) / RFU FIZ1 (11724087_x_at) / Fold change /veh FIZ1 (11724087_x_at) / RFU OASL (11726364_x_at) / Fold change /veh OASL (11726364_x_at) / RFU SOX15 (11748057_x_at) / Fold change /veh SOX15 (11748057_x_at) / RFU CD79A (11719716_a_at) / Fold change /veh CD79A (11719716_a_at) / RFU HIST1H1D (11736915_at) / Fold change /veh HIST1H1D (11736915_at) / RFU CASKIN2 (11723855_a_at) / Fold change /veh CASKIN2 (11723855_a_at) / RFU LOC730098 (11760151_x_at) / Fold change /veh LOC730098 (11760151_x_at) / RFU OR4N2 (11742367_at) / Fold change /veh OR4N2 (11742367_at) / RFU PRRT2 (11749266_a_at) / Fold change /veh PRRT2 (11749266_a_at) / RFU SNX32 (11753110_a_at) / Fold change /veh SNX32 (11753110_a_at) / RFU CDHR5 (11726645_a_at) / Fold change /veh CDHR5 (11726645_a_at) / RFU RCAN1 (11760418_a_at) / Fold change /veh RCAN1 (11760418_a_at) / RFU FAM167A (11723789_a_at) / Fold change /veh FAM167A (11723789_a_at) / RFU FAM26E (11764081_at) / Fold change /veh FAM26E (11764081_at) / RFU ISYNA1 (11749810_s_at) / Fold change /veh ISYNA1 (11749810_s_at) / RFU ACY1 (11761880_at) / Fold change /veh ACY1 (11761880_at) / RFU 11764098_at / Fold change /veh 11764098_at / RFU SAMD14 (11745864_x_at) / Fold change /veh SAMD14 (11745864_x_at) / RFU NPB (11741838_a_at) / Fold change /veh NPB (11741838_a_at) / RFU TMPRSS6 (11731388_a_at) / Fold change /veh TMPRSS6 (11731388_a_at) / RFU KRTAP10-2 (11738614_at) / Fold change /veh KRTAP10-2 (11738614_at) / RFU ARHGAP8 /// PRR5-ARHGAP8 (11727945_x_at) / Fold change /veh ARHGAP8 /// PRR5-ARHGAP8 (11727945_x_at) / RFU KRTAP5-7 /// NADSYN1 (11734609_at) / Fold change /veh KRTAP5-7 /// NADSYN1 (11734609_at) / RFU RASL12 (11751679_a_at) / Fold change /veh RASL12 (11751679_a_at) / RFU CDKN2B (11736163_a_at) / Fold change /veh CDKN2B (11736163_a_at) / RFU PRF1 (11729649_at) / Fold change /veh PRF1 (11729649_at) / RFU, ZNF638 /// ZNF638-IT1 / Fold change vs veh, ZNF638 /// ZNF638-IT1 / RFU, PANK3 / Fold change vs veh, PANK3 / RFU, SH3YL1 / Fold change vs veh, SH3YL1 / RFU, ZEB2 / Fold change vs veh, ZEB2 / RFU, NRIP1 / Fold change vs veh, NRIP1 / RFU, PTTG1IP / Fold change vs veh, PTTG1IP / RFU, CAPN2 / Fold change vs veh, CAPN2 / RFU, MED14 / Fold change vs veh, MED14 / RFU, SNORA58 / Fold change vs veh, SNORA58 / RFU, C1orf63 / Fold change vs veh, C1orf63 / RFU, LRRFIP1 / Fold change vs veh, LRRFIP1 / RFU, NDUFAF7 / Fold change vs veh, NDUFAF7 / RFU, SLC12A2 / Fold change vs veh, SLC12A2 / RFU, IBTK / Fold change vs veh, IBTK / RFU, ESF1 / Fold change vs veh, ESF1 / Fold change vs veh, TMEM50B / RFU, TAOK1 / Fold change vs veh, TAOK1 / RFU, ACBD3 / Fold change vs veh, ACBD3 / RFU, TMA16 / Fold change vs veh, TMA16 / RFU, RWDD3 / Fold change vs veh, RWDD3 / RFU, BCAT1 / Fold change vs veh, BCAT1 / RFU, EDEM3 / Fold change vs veh, EDEM3 / RFU, TMEM33 / Fold change vs veh, TMEM33 / RFU, WDR75 / Fold change vs veh, WDR75 / RFU, AHCTF1 / Fold change vs veh, AHCTF1 / RFU, TFRC / Fold change vs veh, TFRC / RFU, ZDHHC17 / Fold change vs veh, ZDHHC17 / RFU, NOM1 / Fold change vs veh, NOM1 / RFU, ARL8B / Fold change vs veh, ARL8B / RFU, ZBTB11 / Fold change vs veh, ZBTB11 / RFU, TAMM41 / Fold change vs veh, TAMM41 / RFU, KIAA1704 /// LOC100996395 / Fold change vs veh, KIAA1704 /// LOC100996395 / RFU, ING1 / Fold change vs veh, ING1 / RFU, TRMT61B / Fold change vs veh, TRMT61B / RFU, FUBP3 / Fold change vs veh, FUBP3 / RFU, TP53 / Fold change vs veh, TP53 / RFU, TNKS2 / Fold change vs veh, TNKS2 / RFU, ZFP14 / Fold change vs veh, ZFP14 / RFU, ACTR2 / Fold change vs veh, ACTR2 / RFU, PPP3R1 / Fold change vs veh, PPP3R1 / RFU, PIK3R1 / Fold change vs veh, PIK3R1 / RFU, HNRNPA1 / Fold change vs veh, HNRNPA1 / RFU, RNF170 / Fold change vs veh, RNF170 / RFU, ZNF28 / Fold change vs veh, ZNF28 / RFU, RNGTT / Fold change vs veh, RNGTT / RFU, OGT / Fold change vs veh, OGT / RFU, BRD1 / Fold change vs veh, BRD1 / RFU, MARS / Fold change vs veh, MARS / RFU, ZNF655 / Fold change vs veh, ZNF655 / RFU, FAHD1 / Fold change vs veh, FAHD1 / RFU, BDP1 / Fold change vs veh, BDP1 / RFU, LRRCC1 / Fold change vs veh, LRRCC1 / RFU, ARID1A / Fold change vs veh, ARID1A / RFU, ZNF146 / Fold change vs veh, ZNF146 / RFU, ZNF330 / Fold change vs veh, ZNF330 / RFU, GPN3 / Fold change vs veh, GPN3 / RFU, C9orf123 / Fold change vs veh, C9orf123 / RFU, N4BP2L2 / Fold change vs veh, N4BP2L2 / RFU, ARFIP1 / Fold change vs veh, ARFIP1 / RFU, FAM179B / Fold change vs veh, FAM179B / RFU, BCL10 / Fold change vs veh, BCL10 / RFU, UHRF1BP1L / Fold change vs veh, UHRF1BP1L / RFU, BET1 / Fold change vs veh, BET1 / RFU, CNOT2 / Fold change vs veh, CNOT2 / RFU, ZNF268 / Fold change vs veh, ZNF268 / Fold change vs veh, ZNF507 / RFU, DGCR2 / Fold change vs veh, DGCR2 / RFU, WDSUB1 / Fold change vs veh, WDSUB1 / Fold change vs veh, HSP90B1 /// MIR3652 / RFU, ADSS / Fold change vs veh, ADSS / RFU, GK / Fold change vs veh, GK / RFU, ZNF148 / Fold change vs veh, ZNF148 / RFU, TAF9 / Fold change vs veh, TAF9 / RFU, SLC1A5 / Fold change vs veh, SLC1A5 / RFU, SLMO2 / Fold change vs veh, SLMO2 / RFU, ABCC4 / Fold change vs veh, ABCC4 / RFU, LOC101060439 /// RAP1B / Fold change vs veh, LOC101060439 /// RAP1B / RFU, RFX7 / Fold change vs veh, RFX7 / RFU, GTPBP10 / Fold change vs veh, GTPBP10 / RFU, CNEP1R1 / Fold change vs veh, CNEP1R1 / RFU, BIVM-ERCC5 /// ERCC5 / Fold change vs veh, BIVM-ERCC5 /// ERCC5 / RFU, ILF3 / Fold change vs veh, ILF3 / RFU 11762660_at / Fold change /veh 11762660_at / RFU VCAN (11757783_s_at) / Fold change /veh VCAN (11757783_s_at) / RFU DDX43 (11728927_at) / Fold change /veh DDX43 (11728927_at) / RFU KRT8 (11758188_x_at) / Fold change /veh KRT8 (11758188_x_at) / RFU NKD1 (11759106_at) / Fold change /veh NKD1 (11759106_at) / RFU SRD5A1 (11742802_a_at) / Fold change /veh SRD5A1 (11742802_a_at) / RFU TPSAB1 /// TPSB2 (11721975_s_at) / Fold change /veh TPSAB1 /// TPSB2 (11721975_s_at) / RFU GSTM3 (11746129_a_at) / Fold change /veh GSTM3 (11746129_a_at) / RFU IL23R (11737362_x_at) / Fold change /veh IL23R (11737362_x_at) / RFU TMEM51 (11727254_a_at) / Fold change /veh TMEM51 (11727254_a_at) / RFU PIWIL2 (11732686_x_at) / Fold change /veh PIWIL2 (11732686_x_at) / RFU ORM1 (11744905_x_at) / Fold change /veh ORM1 (11744905_x_at) / RFU CCDC152 (11743942_at) / Fold change /veh CCDC152 (11743942_at) / RFU ECM1 (11717891_a_at) / Fold change /veh ECM1 (11717891_a_at) / RFU IL23R (11748794_a_at) / Fold change /veh IL23R (11748794_a_at) / RFU TNFAIP8L3 (11732012_x_at) / Fold change /veh TNFAIP8L3 (11732012_x_at) / RFU MBOAT4 (11741988_at) / Fold change /veh MBOAT4 (11741988_at) / RFU 11764193_at / Fold change /veh 11764193_at / RFU TMEM53 (11763286_at) / Fold change /veh TMEM53 (11763286_at) / RFU MAGEB2 (11727129_at) / Fold change /veh MAGEB2 (11727129_at) / RFU TMEM200A (11744735_a_at) / Fold change /veh TMEM200A (11744735_a_at) / RFU CCDC152 (11751479_a_at) / Fold change /veh CCDC152 (11751479_a_at) / RFU FAM211A (11726209_a_at) / Fold change /veh FAM211A (11726209_a_at) / RFU RGS16 (11746705_a_at) / Fold change /veh RGS16 (11746705_a_at) / RFU VCAN (11755009_s_at) / Fold change /veh VCAN (11755009_s_at) / RFU RHOB (11743442_s_at) / Fold change /veh RHOB (11743442_s_at) / RFU RGS16 (11720943_a_at) / Fold change /veh RGS16 (11720943_a_at) / RFU RGS16 (11720944_at) / Fold change /veh RGS16 (11720944_at) / RFU, VPS4B / Fold change vs veh, VPS4B / RFU, CREB1 / Fold change vs veh, CREB1 / RFU, DNAJC13 / Fold change vs veh, DNAJC13 / RFU, GNAQ / Fold change vs veh, GNAQ / RFU, CDK5R1 / Fold change vs veh, CDK5R1 / RFU, ZRANB3 / Fold change vs veh, ZRANB3 / RFU, CUL4A / Fold change vs veh, CUL4A / RFU, CCNY / Fold change vs veh, CCNY / RFU, UFL1 / Fold change vs veh, UFL1 / RFU, COG3 / Fold change vs veh, COG3 / RFU, DIAPH2 / Fold change vs veh, DIAPH2 / RFU, SKA2 / Fold change vs veh, SKA2 / RFU, AFF3 / Fold change vs veh, AFF3 / RFU, LMF1 / Fold change vs veh, LMF1 / RFU, IPO11 / Fold change vs veh, IPO11 / RFU, DFFB / Fold change vs veh, DFFB / RFU, FOXP1 / Fold change vs veh, FOXP1 / RFU, CARD8 / Fold change vs veh, CARD8 / RFU, STRN3 / Fold change vs veh, STRN3 / RFU, ADK / Fold change vs veh, ADK / RFU, RASSF2 / Fold change vs veh, RASSF2 / RFU, WIPF1 / Fold change vs veh, WIPF1 / RFU, LARP1B / Fold change vs veh, LARP1B / RFU, RASA1 / Fold change vs veh, RASA1 / RFU, RB1 / Fold change vs veh, RB1 / RFU, PPFIA1 / Fold change vs veh, PPFIA1 / RFU, MAT2A / Fold change vs veh, MAT2A / RFU, CCT5 / Fold change vs veh, CCT5 / RFU, WDR92 / Fold change vs veh, WDR92 / RFU, CUX1 / Fold change vs veh, CUX1 / RFU, TTC7A / Fold change vs veh, TTC7A / RFU, TMEM135 / Fold change vs veh, TMEM135 / RFU, DEPTOR / Fold change vs veh, DEPTOR / RFU, CPM / Fold change vs veh, CPM / RFU, DNAJB6 / Fold change vs veh, DNAJB6 / RFU, CACNA2D3 / Fold change vs veh, CACNA2D3 / RFU, DTX4 / Fold change vs veh, DTX4 / RFU, TFCP2 / Fold change vs veh, TFCP2 / RFU, GMCL1 /// GMCL1P1 / Fold change vs veh, GMCL1 /// GMCL1P1 / RFU, AEBP2 / Fold change vs veh, AEBP2 / RFU, SNHG1 /// SNORD22 /// SNORD25 /// SNORD26 /// SNORD27 /// SNORD28 /// SNORD29 /// SNORD31 / Fold change vs veh, SNHG1 /// SNORD22 /// SNORD25 /// SNORD26 /// SNORD27 /// SNORD28 /// SNORD29 /// SNORD31 / Fold change (Aza/veh), C12orf56 (ProbeSet 11735607_a_at) / Fold change (ACY-1035/veh), C12orf56 (ProbeSet 11735607_a_at) / Fold change (Aza/veh), FGFR1OP (ProbeSet 11751329_s_at) / Fold change (ACY-1035/veh), FGFR1OP (ProbeSet 11751329_s_at) / Fold change (Aza/veh), VPS36 (ProbeSet 11739960_a_at) / Fold change (ACY-1035/veh), VPS36 (ProbeSet 11739960_a_at) / RFU SYPL1 (11715823_x_at) / Fold change /veh SYPL1 (11715823_x_at) / RFU IGFBP7 (11715501_s_at) / Fold change /veh IGFBP7 (11715501_s_at) / RFU REEP3 (11722064_at) / Fold change /veh REEP3 (11722064_at) / RFU IGLL1 (11728026_x_at) / Fold change /veh IGLL1 (11728026_x_at): dose or concentration left out as unconfirmed. As to conditions: ProbeSet 11741311_a_at; LIST B.

On to `Nc1ccc(-c2cccs2)cc1NC(=O)c1ccc2c(c1)cc(C1CC1)n2CCN1CCOCC1` [ACY-1035], for which the “Fold change vs veh, ZNF655” value was determined as 0.99.
